Experimental data reported in patent publication US9029325B2, “Amylin analogues and pharmaceutical compositions thereof” (Novo Nordisk A/S, priority 2011, dated 2015).
Like-named read-outs stand apart in the source and are kept apart here. Starred links: 1 amine or outer side, 2 acyl side, 3 side chain; linkers in the order of their positions; H or OH if unused. Positions of bridges follow the written chain, without caps; N, C: chain ends. Residues, ends and D or L forms follow the SMILES beside them. *: point of attachment. C20 diacid = O=C(O)CCCCCCCCCCCCCCCCCCC(=O)*; γGlu = O=C(O)[C@H](CCC(=O)[*:2])N[*:1]

Legend:
[1] = Assay (I) efficacy testing on appetite (food intake), ad libitum fed rat model; format: in vivo, Sprague Dawley (SD) rats; conditions: 3 nmol/kg
How it was run: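 Single ip, po or sc dosing (0.01-3 mg/kg, by body weight) at the start of the dark phase, in individually housed Sprague Dawley rats of 200-250 g with free food and water. Intake was logged per rat each hour to 7 h, then at 24 h (occasionally 48 h), against a vehicle group; outliers removed by Grubbs test.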

[2] = Assay (III) ThT fibrillation assay for physical stability; format: physicochemical; conditions: for Th T pH 4.0 lag time (h): 37° C., orbital shaking 960 rpm; for ThT pH 4.0 lag time: Table 9
How it was run: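 Freshly prepared samples, pH adjusted with NaOH and HClO4 or HCl, received ThT at 1 μM final and were incubated at 37° C with orbital shaking at 960 rpm. Fluorescence (ex 444 nm, em 485 nm) was read every 20 minutes; […], with polypeptide concentration by reverse HPLC before and after.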

[3] = test system: amylin receptor versus calcitonin receptor; conditions: cited from earlier work

Compound	Food intake reduction 0-24 h 3 nmol/kg (%) [1] [%]	Food intake reduction 24-48 h 3 nmol/kg (%) [1] [%]	Th T pH 4.0 lag time (h) [2] [h]	ThT pH 4.0 lag time [2] [hr]	times more potent on the amylin receptor than on the calcitonin receptor [3] [times]	times more potent on the amylin receptor than on the calcitonin receptor ([3]; listed as Pramlintide)
CC[C@H](C)[C@H](NC(=O)[C@@H]1CCCN1C(=O)CNC(=O)[C@H](Cc1ccccc1)NC(=O)[C@H](CC(N)=O)NC(=O)[C@H](CC(N)=O)NC(=O)[C@H](CO)NC(=O)[C@H](CO)NC(=O)[C@H](Cc1c[nH]cn1)NC(=O)[C@H](Cc1c[nH]cn1)NC(=O)[C@H](CC(C)C)NC(=O)[C@H](Cc1ccccc1)NC(=O)[C@H](CCC(=O)O)NC(=O)[C@H](C)NC(=O)[C@H](CC(C)C)NC(=O)[C@H](CCCNC(=N)N)NC(=O)[C@H](CCC(N)=O)NC(=O)[C@@H](NC(=O)[C@H](C)NC(=O)[C@@H]1CSSC[C@H](NC(=O)[C@H](CCCNC(=N)N)NC(=O)CC[C@H](NC(=O)CCCCCCCCCCCCCCCCCCC(=O)O)C(=O)O)C(=O)N[C@@H](CC(N)=O)C(=O)N[C@@H]([C@@H](C)O)C(=O)N[C@@H](C)C(=O)N[C@@H]([C@@H](C)O)C(=O)N1)[C@@H](C)O)C(=O)N[C@@H](CC(C)C)C(=O)N1CCC[C@H]1C(=O)N1CCC[C@H]1C(=O)N[C@H](C(=O)N[C@@H](CC(N)=O)C(=O)N[C@H](C(=O)NCC(=O)N[C@@H](CO)C(=O)N[C@@H](CC(N)=O)C(=O)N[C@H](C(=O)N1CCC[C@H]1C(N)=O)[C@@H](C)O)C(C)C)[C@@H](C)O [Example 96, N-alpha-[(S)-4-Carboxy-4-(19-carboxynonadecanoylamino)butyryl]-[Arg1, Glu14, His17, Pro37]-pramlintide] ({C20 diacid-γGlu}-RCNTATCATQRLAEFLHHSSNNFGPILPPTNVGSNTP-NH2; disulfide 2-7)	69	89	>45	>45		
CC[C@H](C)[C@H](NC(=O)[C@@H]1CCCN1C(=O)CNC(=O)[C@H](Cc1ccccc1)NC(=O)[C@H](CC(N)=O)NC(=O)[C@H](CC(N)=O)NC(=O)[C@H](CO)NC(=O)[C@H](CO)NC(=O)[C@H](Cc1c[nH]cn1)NC(=O)[C@H](Cc1c[nH]cn1)NC(=O)[C@H](CC(C)C)NC(=O)[C@H](Cc1ccccc1)NC(=O)[C@H](CCC(=O)O)NC(=O)[C@H](C)NC(=O)[C@H](CC(C)C)NC(=O)[C@H](CCCNC(=N)N)NC(=O)[C@H](CCC(N)=O)NC(=O)[C@@H](NC(=O)[C@H](C)NC(=O)[C@@H]1CSSC[C@H](NC(=O)[C@H](CCCNC(=N)N)NC(=O)CNC(=O)CC[C@H](NC(=O)CCCCCCCCCCCCCCCCCCC(=O)O)C(=O)O)C(=O)N[C@@H](CC(N)=O)C(=O)N[C@@H]([C@@H](C)O)C(=O)N[C@@H](C)C(=O)N[C@@H]([C@@H](C)O)C(=O)N1)[C@@H](C)O)C(=O)N[C@@H](CC(C)C)C(=O)N1CCC[C@H]1C(=O)N1CCC[C@H]1C(=O)N[C@H](C(=O)N[C@@H](CC(N)=O)C(=O)N[C@H](C(=O)NCC(=O)N[C@@H](CO)C(=O)N[C@@H](CC(N)=O)C(=O)N[C@H](C(=O)N1CCC[C@H]1C(N)=O)[C@@H](C)O)C(C)C)[C@@H](C)O [Example 101, N-alpha-[(S)-4-Carboxy-4-(19-carboxynonadecanoylamino)butyryl]-Gly-[Arg1, Glu14, His17, Pro37]-pramlintide] ({C20 diacid-γGlu}-GRCNTATCATQRLAEFLHHSSNNFGPILPPTNVGSNTP-NH2; disulfide 3-8 (inferred); C-terminus assumed)	70	90	>45	>45		
pramlintide					14	approximately 14 times
